Measurements taken from BindingDB's records for doi:10.1021/jm00095a003 (C.N.R.-Centro Studio Sostanze Organiche Naturali, 1992).

Experiments:
[1] = target: T1, Muscarinic acetylcholine receptor (Cavia porcellus, UniProt Q8VH26); assay: Dissociation constant at muscarinic acetylcholine receptor M3 guinea pig bladder.
[2] = target: T1, Muscarinic acetylcholine receptor; assay: Dissociation constant at muscarinic acetylcholine receptor M3 of guinea pig ileum.
[3] = target: T1, Muscarinic acetylcholine receptor; assay: Dissociation constant at muscarinic M3 receptors of guinea pig ileum.
[4] = target: T1, Muscarinic acetylcholine receptor; assay: Dissociation constant at muscarinic M3 receptors of guinea pig bladder.

T1 sequence (Q8VH26 whole entry): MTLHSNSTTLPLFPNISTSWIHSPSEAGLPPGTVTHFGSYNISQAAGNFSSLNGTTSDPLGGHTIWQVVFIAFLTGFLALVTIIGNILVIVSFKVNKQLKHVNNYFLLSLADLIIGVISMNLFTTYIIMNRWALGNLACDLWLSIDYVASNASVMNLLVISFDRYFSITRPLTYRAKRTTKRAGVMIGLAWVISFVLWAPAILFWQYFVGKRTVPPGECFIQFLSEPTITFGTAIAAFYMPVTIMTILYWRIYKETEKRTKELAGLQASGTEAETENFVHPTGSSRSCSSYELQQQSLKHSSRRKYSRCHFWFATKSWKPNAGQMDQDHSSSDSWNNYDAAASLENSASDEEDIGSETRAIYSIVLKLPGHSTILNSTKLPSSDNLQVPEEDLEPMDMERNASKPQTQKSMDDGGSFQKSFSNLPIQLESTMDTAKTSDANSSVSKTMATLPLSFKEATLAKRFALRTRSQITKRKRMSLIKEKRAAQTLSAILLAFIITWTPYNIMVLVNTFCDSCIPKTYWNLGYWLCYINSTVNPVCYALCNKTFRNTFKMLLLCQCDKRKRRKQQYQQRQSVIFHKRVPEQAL

Question: With `C[C@@H]1O[C@H](C[N+](C)(C)C)C[C@H]1O` as the compound, how does the Kd [1] read?
Answer: The Kd was 24 µM.

Question: And the Kd [2]?
Answer: Its Kd is 1.12 µM.

Question: `C[C@@H]1O[C@H](C[N+](C)(C)C)C[C@H]1F` was tested. Which Kd [3] did it give?
Answer: The Kd was 1.91 µM.

Question: And the Kd [4]?
Answer: The Kd was 40.7 µM.
